Measurements taken from US10105426B2, “Immunostimulatory combinations” (TRUSTEES OF DARTMOUTH COLLEGE, priority 2002, dated 2018).

Columns and labels:
Assay type in all cases: in vivo, C57BL6 mice
[1] = tested on: CD8^+ memory T cells; assay: Generation and re-activation of CD8+ memory T cells (Example 4); conditions: day 0: 100 μg ovalbumin peptide + 200 μg IRM1 + 100 μg 1C10 i.v.; challenge day 28 with peptide or peptide + 200 μg IRM1; analysis day 33
Protocol: Mice were immunized intravenously on day 0 with 100 μg ovalbumin peptide+200 μg IRM 1+100 μg of 1C10 anti-CD40 antibody. On day 28, the mice were either (A) left unchallenged, (B) challenged intravenously with 100 μg ovalbumin peptide, or (C) challenged intravenously with 100 μg ovalbumin peptide+200 μg IRM1. On day 33, the mice were sacrificed, the spleens removed and spleen cells homogenized. The homogenized cells were stained and analyzed as described in Example 1.

[2] = tested on: TRP2-ΔV-specific CD8^+ T cells; assay: Expansion of TRP2-ΔV-specific CD8+ T cells after i.v. immunization (Example 3); conditions: 100 μg FGK4.5 + 200 μg IRM1 + 100 μg TRP2-ΔV peptide i.v.; spleen, day 5
Protocol: Mice were immunized intravenously with 100 μg FGK4.5 anti-CD40 antibody+200 μg IRM1 and either (A) no peptide, (B) 100 μg ovalbumin peptide, or (C) 100 μg TRP2-ΔV peptide. At five days after the immunizations, the spleens were removed from the mice and homogenized. The homogenized cell suspension was stained as in Example 1, except that the MHC tetramer reagent was prepared for detecting TRP2-ΔV-specific T cells. When subjected to flow cytometry, TRP2-ΔV-specific CD8^+ T cells are shown in the upper right quadrant of the dot plots shown in FIG. 3. The numbers in the upper right quadrant indicate the percentage of cells in that quadrant.

[3] = tested on: CD8^+ T cells; assay: CD8+ T cell expansion with IRM1 and different TNF/R agonists (Example 9); conditions: 1 mg ovalbumin + 200 μg IRM1 + 200 μg TNF/R agonist; spleen, day 6
Protocol: Mice were immunized on day 0 with 1 mg ovalbumin, 200 μg IRM1, and either 200 μg CD40 ligand (FGK4.5), 200 μg 4-1BB ligand (anti-mouse 4-1BB antibody, clone 17B3, eBioscience, San Diego, Calif.), or no TNF/R agonist (control).

[4] = tested on: ovalbumin-specific CD8^+ T cells; assay: Expansion kinetics of ovalbumin-specific CD8+ T cells after i.p. immunization with whole ovalbumin (Example 2); conditions: 5 mg ovalbumin + 50 μg FGK4.5 anti-CD40 antibody + 220 μg IRM1 i.p.; spleen, days 4-12
Protocol: Mice were intraperitoneally injected with 5 mg ovalbumin (Sigma Chemical Co., St. Louis, Mo.), 50 μg FGK4.5 anti-CD40 antibody, and 220 μg IRM1. Mice were sacrificed on each of days four, five, six, nine, and twelve. The spleens were removed from the sacrificed mice and homogenized. The homogenized cell suspensions were stained and analyzed as described in Example 1. When subjected to flow cytometry, ovalbumin-specific CD8^+ T cells (top) and ovalbumin-specific CD8^+/CD44+ T cells (bottom) were identified and are shown in the upper right quadrant of each dot plot. The numbers in the upper right quadrant indicate the percentage of cells in that quadrant.

[5] = tested on: melanoma B16ova tumor cells; assay: Tumor growth after melanoma B16ova challenge, immunization with ovalbumin peptide (Example 6); conditions: B16ova intradermal day 0; immunization day 7 with 100 μg ovalbumin peptide + 200 μg IRM + 100 μg 1C10; measured day 21
Protocol: Mice were challenged intradermally on day 0 with 1×10^5 melanoma B16ova tumor cells in PBS (Kedl et al. PNAS 98(19):10811-10816). On day 7, the mice were immunized with either (A) 100 μg ovalbumin peptide, (B) 100 μg ovalbumin peptide+200 μg IRM1, or (C) 100 μg ovalbumin peptide+200 μg IRM1+100 μg 1C10 anti-CD40 antibody. On day 21, the mice were sacrificed and the tumors were measured in two dimensions by caliper.
Mice also were challenged as described above, and immunized as described above except that IRM2 was substituted for IRM1.

[6] = tested on: ovalbumin-specific CD8^+ T cells; assay: Expansion of ovalbumin-specific CD8+ T cells after i.v. immunization with ovalbumin peptide (Example 1, MHC tetramer flow cytometry of spleen cells); conditions: 100 μg ovalbumin peptide + 100 μg 1C10 anti-CD40 antibody + 200 μg IRM1 i.v., day 5, combination vs either agonist alone
Protocol: Unless otherwise indicated, mice used in the following examples are C57BL6 mice, available from Charles River Laboratories, Inc., Wilmington, Mass.
MHC tetrameric reagent was prepared using a eukaryotic (Baculovirus) expression system as follows/described in Kedl et al., JEM 192(8):1105-1113 (2000).
2-5 Mice were immunized intravenously with (A) 100 μg ovalbumin peptide, (B) 100 μg ovalbumin peptide+100 μg anti-CD40 antibody (1C10), (C) 100 μg ovalbumin peptide+200 μg IRM1, or (D) 100 μg ovalbumin peptide+100 μg 1C10 anti-CD40 antibody+200 μg IRM1. At five days after the immunizations, the spleens were removed from the mice and homogenized. The homogenized cell suspension was stained with a major histocompatibility complex (MHC) tetrameric reagent for detecting ovalbumin-specific T cells (Kedl et al., JEM 192(8):1105-1113 (2000)), a CD8 stain (BD Biosciences Pharmingen, San Diego, Calif.), and a CD44 stain (BD Biosciences Pharmingen, San Diego, Calif.). When subjected to flow cytometry, ovalbumin-specific CD8^+ T cells are shown in the upper right quadrant of the dot plots shown in FIG. 1.

[7] = tested on: melanoma B16ova tumor cells; assay: Tumor growth after melanoma B16ova challenge, immunization with tumor lysate (Example 7); conditions: B16ova day 0; immunization day 7 with 1×10^6 CE tumor lysate ± 200 μg IRM1 ± 100 μg FGK4.5; measured days 14 and 20
Protocol: Mice were challenged with tumor on day 0 as in example 6. 5 mice each were immunized on days 7 with 1×10^6 cell equivalents (CE) (A) tumor lysate, (B) 1×10^6 CE tumor lysate+200 μg IRM1, (C) 1×10^6 CE tumor lysate+100 μg FGK4.5 anti-CD40 antibody, or (D)1×10^6 CE tumor lysate+200 μg IRM1+100 μg FGK4.5 anti-CD40 antibody. Tumor sizes were measured on the mice by caliper on days 14 and 20.

[8] = tested on: CD8^+ T cells; assay: CD8+ T cell expansion with CD40 agonist and different IRM compounds (Example 8); conditions: 500 μg ovalbumin + 50 μg FGK4.5 + IRM (500 μg IRM3, 200 μg IRM4, 800 μg IRM5, 800 μg IRM2) i.p.; spleen, day 6; n=3
Protocol: Mice were intraperitoneally injected on day 0 with 500 μg ovalbumin, 50 μg CD40 agonist (FGK4.5), and either 500 μg IRM3, 200 μg IRM4, 800 μg IRM5, 800 μg IRM2, or no IRM (control).

## Cc1nc2c(N)nc3ccccc3c2n1CC(C)(C)O [IRM1, 4-amino-α,α,2-trimethyl-1H-imidazo[4,5-c]quinolin-1-ethanol]
[1]
  Generation and re-activation of CD8^+ memory T cells: generates a pool of long-lived CD8^+ memory T cells that can be reactivated by treatment with IRM and the antigen
[2]
  Expansion of antigen-specific (TRP2-ΔV) CD8^+ T cells: synergistic expansion of antigen-specific CD8^+ T cells
[3]
  Expansion of CD8^+ T cells: Synergistic expansion of CD8^+ T cells
[4]
  CD8^+ T cell expansion (ovalbumin-specific): synergistic effect on CD8^+ T cell expansion
[5]
  Tumor growth (tumor size by caliper): slower tumor growth than immunization with IRM alone
[6]
  Expansion of the ovalbumin-specific CD8^+ T cell population: greater than the expansion of the ovalbumin-specific CD8^+ T cell populations after stimulation with either the anti-CD40 antibody or IRM alone
[7]
  Tumor growth (tumor size by caliper): slower tumor growth than immunization with IRM alone or CD40 agonist alone

## COCCc1nc2c(N)nc3ccccc3c2n1CCOCCN(C)C(=O)N1CCOCC1 [IRM2, N-(2-{2-[4-amino-2-(2-methoxyethyl)-1H-imidazo[4,5-c]quinolin-1-yl]ethoxy}ethyl)-N-methylmorpholine-4-carboxamide]
[8]
  Expansion of CD8^+ T cells: Synergistic expansion of CD8^+ T cells

## CCOCc1nc2c(N)nc3ccccc3c2n1CC(C)(C)N [IRM3, 1-(2-amino-2-methylpropyl)-2-(ethoxymethyl)-1H-imidazo[4,5-c]quinolin-4-amine]
[8]
  Expansion of CD8^+ T cells: Synergistic expansion of CD8^+ T cells

## CCc1nc2c(N)nc3ccccc3c2n1CCCCNS(C)(=O)=O [IRM4, N-[4-(4-amino-2-ethyl-1H-imidazo[4,5-c]quinolin-1-yl)butyl]-methanesulfonamide]
[8]
  Expansion of CD8^+ T cells: Synergistic expansion of CD8^+ T cells

## CCCc1nc2c(N)nc3ccccc3c2n1CCCCNS(C)(=O)=O [IRM5, N-[4-(4-amino-2-propyl-1H-imidazo[4,5-c]quinolin-1-yl)butyl]-methanesulfonamide]
[8]
  Expansion of CD8^+ T cells: Synergistic expansion of CD8^+ T cells
